Read-outs that look alike come from different tables or passages of the source.
How the values were obtained:
[1] = test system: Key Broadleaf Weed and Crop Species; test: Post-emergent Test II herbicidal activity (Table 5); assay type: in vivo; settings: post-emergence, 336 h, post-emergent, 14 days after application; for pest or weed control at 70 g/ha: 70 g ai/ha; for pest or weed control at 140 g/ha: 140 g ai/ha
How it was run: (§1)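 Visual injury ratings (0 = no injury, 100 = complete kill) were taken 14 d after treatment, relative to untreated plants. Seedlings at the first–second true leaf stage received overhead spray at 187 L/ha; the highest rate was serially diluted to ½×, ¼×, ⅛× and 1/16×.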

[2] = test system: Key Grass and Sedge Weeds as well as Grass Crops; test: Post-emergent Test II herbicidal activity (Table 6); assay type: in vivo; settings: post-emergence, 336 h; for pest or weed control at 70 g/ha: application rate 70 g ai/ha; for pest or weed control at 140 g/ha: application rate 140 g ai/ha
How it was run: as §1

[3] = ABUTH: velvetleaf (Abutilon theophrasti), read-out: Visual Growth Reduction (%) 14 Days After Application ABUTH
[4] = AMARE: redroot pigweed (Amaranthus retroflexus), read-out: Visual Growth Reduction (%) 14 Days After Application AMARE
[5] = BRSNN: oilseed-rape, canola (Brassica napus), read-out: Visual Growth Reduction (%) 14 Days After Application BRSNN
[6] = CHEAL: lambsquarters (Chenopodium album), read-out: Visual Growth Reduction (%) 14 Days After Application CHEAL
[7] = EPHHL: wild poinsettia (Euphorbia heterophylla), read-out: Visual Growth Reduction (%) 14 Days After Application EPHHL
[8] = HELAN: sunflower (Helianthus annuus), read-out: Visual Growth Reduction (%) 14 Days After Application HELAN
[9] = VIOTR: wild pansy (Viola tricolor), read-out: Visual Growth Reduction (%) 14 Days After Application VIOTR
[10] = Triticum aestivum, TRZSS (wheat), read-out: Visual Growth Reduction (%) 14 Days After Application, TRZSS
[11] = CYPES: yellow nutsedge (Cyperus esculentus), read-out: Visual Growth Reduction (%) 14 Days After Application, CYPES
[12] = DIGSA: crabgrass (Digitaria sanguinalis), read-out: Visual Growth Reduction (%) 14 Days After Application, DIGSA
[13] = ECHCG: barnyardgrass (Echinochloa crus-galli), read-out: Visual Growth Reduction (%) 14 Days After Application, ECHCG
[14] = ORYSA: rice (Oryza sativa), read-out: Visual Growth Reduction (%) 14 Days After Application, ORYSA
[15] = SETFA: giant foxtail (Setaria faberi), read-out: Visual Growth Reduction (%) 14 Days After Application, SETFA
[16] = SORVU: grain sorghum (Sorghum vulgare), read-out: Visual Growth Reduction (%) 14 Days After Application, SORVU
[17] = ZEAMX: maize, corn (Zea mays), read-out: Visual Growth Reduction (%) 14 Days After Application, ZEAMX

## COc1c(N)nc(-c2ccc(Br)c(F)c2)nc1C(=O)O [Compound 113, 6-Amino-2-(4-bromo-3-fluorophenyl)-5-methoxypyrimidine-4-carboxylic acid]
[1]; [3]
  pest or weed control at 70 g/ha: 85 to 94%
  pest or weed control at 140 g/ha: 85 to 94%
[1]; [4]
  pest or weed control at 70 g/ha: 95 to 100%
  pest or weed control at 140 g/ha: 95 to 100%
[1]; [5]
  pest or weed control at 70 g/ha: 95 to 100%
  pest or weed control at 140 g/ha: 95 to 100%
[1]; [6]
  pest or weed control at 70 g/ha: 95 to 100%
  pest or weed control at 140 g/ha: 95 to 100%
[1]; [7]
  pest or weed control at 70 g/ha: 95 to 100%
  pest or weed control at 140 g/ha: 95 to 100%
[1]; [8]
  pest or weed control at 70 g/ha: 95 to 100%
  pest or weed control at 140 g/ha: 95 to 100%
[1]; [9]
  pest or weed control at 70 g/ha: 95 to 100%
  pest or weed control at 140 g/ha: 95 to 100%
[2]; [10]
  pest or weed control at 70 g/ha: 60 to 74%
  pest or weed control at 140 g/ha: 75 to 84%
[2]; [11]
  pest or weed control at 70 g/ha: 95 to 100%
  pest or weed control at 140 g/ha: 95 to 100%
[2]; [12]
  pest or weed control at 70 g/ha: 75 to 84%
  pest or weed control at 140 g/ha: 75 to 84%
[2]; [13]
  pest or weed control at 70 g/ha: 85 to 94%
  pest or weed control at 140 g/ha: 85 to 94%
[2]; [14]
  pest or weed control at 70 g/ha: 30 to 44%
  pest or weed control at 140 g/ha: 60 to 74%
[2]; [15]
  pest or weed control at 70 g/ha: 75 to 84%
  pest or weed control at 140 g/ha: 75 to 84%
[2]; [16]
  pest or weed control at 70 g/ha: 85 to 94%
  pest or weed control at 140 g/ha: 85 to 94%
[2]; [17]
  pest or weed control at 70 g/ha: 85 to 94%
  pest or weed control at 140 g/ha: 85 to 94%

— US9113629B2, “4-amino-6-(4-substituted-phenyl)-picolinates and 6-amino-2-(4-substituted-phenyl)-pyrimidine-4-carboxylates and their use as herbicides” (DOW AGROSCIENCES LLC, priority 2013, dated 2015)
